{"source": "paper PMC3558931", "about": "(Chemistry & biology, 2013)", "data": [{"test_system": "methyltransferase NcpB", "experiment": "NcpB O-methyltransferase enzyme assay", "details": "with NcpB and SAM", "values": [{"molecule": "Cc1cc(O)c(C)c(=O)o1", "note": "[4-hydroxy-3,6-dimethyl-2-pyrone]", "substrate of NcpB (O-methylation)": "not substrates"}, {"molecule": "germicidin A", "substrate of NcpB (O-methylation)": "not substrates"}, {"molecule": "Cc1cc(O)cc(=O)o1", "substrate of NcpB (O-methylation)": "not substrates"}]}]}
